# ChEMBL document CHEMBL1125269, “Design of enzyme inhibitors using iterative protein crystallographic analysis” (J Med Chem, 1991)
# Tests used:
# GC3/MTK- [1] = assay: Inhibition of cellular growth against human adenocarcinoma (GC3/M TK-) deficient in thymidine kinase
# L1210 [2] = assay: Inhibition of cellular growth against mouse (L1210) deficient in thymidine kinase
# CCRF-CEM [3] = assay: Inhibition of cellular growth against human (CCRF-CEM) leukemias (ATCC) deficient in thymidine kinase
# Thymidylate synthase [4] = target: Thymidylate synthase (Escherichia coli, UniProt C3SWJ7)
# Thymidylate synthase (Escherichia coli, UniProt C3SWJ7), sequence (C3SWJ7 whole entry): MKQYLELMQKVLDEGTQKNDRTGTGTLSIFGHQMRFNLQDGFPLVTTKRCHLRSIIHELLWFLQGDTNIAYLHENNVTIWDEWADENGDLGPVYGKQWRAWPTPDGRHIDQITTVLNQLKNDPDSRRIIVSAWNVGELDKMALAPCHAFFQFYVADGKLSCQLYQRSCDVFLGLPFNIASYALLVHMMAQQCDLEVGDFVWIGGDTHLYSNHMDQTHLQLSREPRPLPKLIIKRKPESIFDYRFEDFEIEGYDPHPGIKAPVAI
# Description: Inhibition of Thymidylate synthase of Escherichia coli (Ki)
# CCRF-CEM [5] = assay: Inhibition of cellular growth against human (CCRF-CEM) leukemias (ATCC) deficient in thymidine kinase.
# GC3/MTK- [6] = assay: Inhibition of cellular growth against human adenocarcinoma (GC3/M TK-) deficient in thymidine kinase.
# L1210 [7] = assay: Inhibition of cellular growth against mouse (L1210) deficient in thymidine kinase.
# Thymidylate synthase [8] = target: Thymidylate synthase (Homo sapiens, UniProt P04818)
# Thymidylate synthase (Homo sapiens, UniProt P04818), sequence (P04818 whole entry): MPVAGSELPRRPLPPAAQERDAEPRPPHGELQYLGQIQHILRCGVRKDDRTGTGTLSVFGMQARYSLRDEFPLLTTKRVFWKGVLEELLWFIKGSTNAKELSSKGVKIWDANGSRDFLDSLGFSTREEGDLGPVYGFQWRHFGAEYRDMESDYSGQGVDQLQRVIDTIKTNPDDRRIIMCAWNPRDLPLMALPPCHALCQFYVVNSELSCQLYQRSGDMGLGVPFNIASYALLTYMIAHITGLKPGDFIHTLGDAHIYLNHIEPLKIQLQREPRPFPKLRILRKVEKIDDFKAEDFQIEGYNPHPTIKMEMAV
# Description: Inhibition of human Thymidylate synthase (Ki)
# [9] = target: Thymidylate synthase (Escherichia coli) (UniProt C3SWJ7)
# Thymidylate synthase (Escherichia coli), sequence (C3SWJ7 1-264): as the sequence (C3SWJ7 whole entry) above
# Description: Inhibition of Thymidylate synthase of Escherichia coli (Kii)
Structure (SMILES),IC50 (CCRF-CEM [5]),IC50 (L1210 [7]),IC50 (GC3/MTK- [6]),also measured
C#CCN(Cc1ccc2nc(C)nc(O)c2c1)c1cccc(C(F)(F)F)c1,–,–,–,IC50 (GC3/MTK- [1]): > 4.3 µM; IC50 (L1210 [2]): > 4.3 µM; IC50 (CCRF-CEM [3]): > 4.3 µM; Ki (Thymidylate synthase [4]): 450 nM
C#CCN(Cc1ccc2[nH]c(N)nc(=O)c2c1)c1ccc(C(=O)NC(CCC(=O)O)C(=O)O)cc1 (centres undefined),750 nM,3500 nM,1.4 µM,–
C#CCN(Cc1ccc2nc(C)nc(O)c2c1)c1ccccc1,–,–,> 10.7 µM,IC50 (L1210 [2]): > 10.7 µM; IC50 (CCRF-CEM [3]): > 10.7 µM
C#CCN(Cc1ccc2nc(C)nc(O)c2c1)c1ccc(C(=O)NC(CCC(=O)O)C(=O)O)cc1 (centres undefined),43 nM,59 nM,0.049 µM,Ki (Thymidylate synthase [8]): 8.5 nM; Kii [9]: 0.013 µM; Ki (Thymidylate synthase [4]): 4.8 nM
CN(Cc1ccc(S(=O)(=O)c2ccccc2)cc1)c1ccc2c3c(cccc13)C(=O)N2,–,–,–,IC50 (GC3/MTK- [1]): > 5 µM
CCN(Cc1ccc(S(=O)(=O)N2CCNCC2)cc1)c1ccc2c3c(cccc13)C(=O)N2,–,6000 nM,–,–
CN(Cc1ccc(S(=O)(=O)N2CCNCC2)cc1)c1ccc2c3c(cccc13)C(=O)N2,8300 nM,2300 nM,25 µM,–

# More lines, main results first:
IC50 (CCRF-CEM [5]),IC50 (L1210 [7]),Structure (SMILES),IC50 (GC3/MTK- [6]),also measured
3500 nM,2000 nM,C#CCN(Cc1ccc2nc(C)nc(O)c2c1)c1ccc(S(=O)(=O)c2ccccc2)c(C(F)(F)F)c1,7.5 µM,–
1600 nM,380 nM,CN(Cc1ccc(S(=O)(=O)c2ccccc2)cc1)c1ccc2c3c(cccc13)C(N)=N2,4.6 µM,–
2200 nM,2050 nM,Nc1nc2cc3c(cc2[nH]1)N(Cc1ccc(S(=O)(=O)N2CCNCC2)cc1)CCC3,–,IC50 (GC3/MTK- [1]): > 50 µM
11000 nM,20000 nM,O=S(=O)(c1ccc(CN2CCCc3cc4[nH]cnc4cc32)cc1)N1CCNCC1,43 µM,Ki (Thymidylate synthase [4]): 4900 nM
3900 nM,2000 nM,Nc1nc2cc3c(cc2[nH]1)N(Cc1ccc(S(=O)(=O)c2ccccc2)cc1)CCC3,–,IC50 (GC3/MTK- [1]): > 5 µM; Ki (Thymidylate synthase [4]): 43 nM
1300 nM,300 nM,C#CCN(Cc1ccc2nc(C)nc(O)c2c1)c1ccc(S(=O)(=O)n2ccc3ccccc32)cc1,1.5 µM,–
1600 nM,1000 nM,C#CCN(Cc1ccc2nc(C)nc(O)c2c1)c1ccc(S(=O)(=O)c2ccccc2)cc1,1.1 µM,–
